Reference: US12421243B2, “Pharmaceutically effective compounds inhibiting selectively the myosin 2 isoforms” (PRINTNET KERESKEDELMI ÉS SZOLGÁLTATÓ KFT., priority 2018, dated 2025)

Assays:
[1] = biological target: recombinant human non-muscle myosin 2 NM2C (Homo sapiens, UniProt Q7Z406); assay: actomyosin steady state ATPase measurement, NM2C; format: biochemical; conditions: for IC50: concentration required for semi-maximal inhibition of ATPase; for % inhibition. complete NM2C: maximum value of inhibition of ATPase activity; for inhibition at 5 µM: read-out: % inhibition at 5 μM (or 10 μM if racemate) NM2C, 5 μM (10 μM if racemate); for inhibition at 5 µM / inhibition at 50 µM: ATPase activity; for inhibition at 50 µM: read-out: % inhibition at 50 μM (or 100 μM if racemate) NM2C, 50 μM (100 μM if racemate)
Chain of recombinant human non-muscle myosin 2 NM2C (Q7Z406 whole entry): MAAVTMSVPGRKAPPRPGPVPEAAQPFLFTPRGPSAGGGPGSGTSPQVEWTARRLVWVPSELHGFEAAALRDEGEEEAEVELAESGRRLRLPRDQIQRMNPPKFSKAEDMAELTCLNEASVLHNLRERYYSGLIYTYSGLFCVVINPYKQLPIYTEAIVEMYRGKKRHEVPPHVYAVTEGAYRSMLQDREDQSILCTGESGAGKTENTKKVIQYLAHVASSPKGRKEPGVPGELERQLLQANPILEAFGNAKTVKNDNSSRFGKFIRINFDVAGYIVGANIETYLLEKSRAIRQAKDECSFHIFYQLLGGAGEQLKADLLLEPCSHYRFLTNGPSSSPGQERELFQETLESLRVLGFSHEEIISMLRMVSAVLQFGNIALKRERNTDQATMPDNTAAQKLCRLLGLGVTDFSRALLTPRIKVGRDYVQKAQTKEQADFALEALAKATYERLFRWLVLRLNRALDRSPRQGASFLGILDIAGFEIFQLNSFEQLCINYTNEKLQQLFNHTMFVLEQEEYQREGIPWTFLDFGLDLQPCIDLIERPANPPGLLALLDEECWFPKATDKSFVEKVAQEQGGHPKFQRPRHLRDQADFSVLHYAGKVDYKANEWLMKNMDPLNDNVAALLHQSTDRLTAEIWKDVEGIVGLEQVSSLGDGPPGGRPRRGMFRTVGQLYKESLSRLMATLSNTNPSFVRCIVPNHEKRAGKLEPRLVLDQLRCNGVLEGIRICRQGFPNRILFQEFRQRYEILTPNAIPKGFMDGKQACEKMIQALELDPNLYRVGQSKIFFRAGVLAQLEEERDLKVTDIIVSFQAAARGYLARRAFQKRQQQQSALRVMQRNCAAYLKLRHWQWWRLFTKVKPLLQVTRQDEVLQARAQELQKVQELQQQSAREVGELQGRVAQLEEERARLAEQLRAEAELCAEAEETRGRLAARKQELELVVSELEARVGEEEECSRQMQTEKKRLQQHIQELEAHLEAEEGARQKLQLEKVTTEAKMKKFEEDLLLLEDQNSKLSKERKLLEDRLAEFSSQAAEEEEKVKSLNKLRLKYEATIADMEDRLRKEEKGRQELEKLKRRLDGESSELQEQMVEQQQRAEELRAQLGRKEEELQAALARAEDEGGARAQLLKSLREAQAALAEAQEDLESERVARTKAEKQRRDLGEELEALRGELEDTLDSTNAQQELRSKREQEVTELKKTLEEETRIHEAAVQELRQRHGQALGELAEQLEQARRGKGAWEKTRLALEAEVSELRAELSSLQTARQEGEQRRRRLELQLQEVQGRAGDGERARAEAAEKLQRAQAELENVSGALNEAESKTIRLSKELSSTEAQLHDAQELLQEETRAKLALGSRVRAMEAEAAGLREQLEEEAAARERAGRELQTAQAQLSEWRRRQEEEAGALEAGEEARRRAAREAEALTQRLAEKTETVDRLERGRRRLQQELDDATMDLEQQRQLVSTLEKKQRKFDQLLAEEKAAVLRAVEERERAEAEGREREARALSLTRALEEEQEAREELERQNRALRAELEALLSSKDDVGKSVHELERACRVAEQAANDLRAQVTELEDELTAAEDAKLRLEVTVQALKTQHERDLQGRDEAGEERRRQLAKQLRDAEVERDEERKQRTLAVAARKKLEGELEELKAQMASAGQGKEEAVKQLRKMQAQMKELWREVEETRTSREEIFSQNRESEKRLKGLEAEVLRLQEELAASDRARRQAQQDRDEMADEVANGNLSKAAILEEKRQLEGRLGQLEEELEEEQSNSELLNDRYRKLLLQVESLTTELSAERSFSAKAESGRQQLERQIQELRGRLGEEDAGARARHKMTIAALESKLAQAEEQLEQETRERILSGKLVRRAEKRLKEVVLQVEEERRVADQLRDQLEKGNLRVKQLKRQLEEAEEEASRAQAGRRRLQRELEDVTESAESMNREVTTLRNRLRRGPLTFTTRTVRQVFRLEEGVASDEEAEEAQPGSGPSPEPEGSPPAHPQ
Description: (§1) […]; (ii) the concentration required for semi-maximal inhibition.

[2] = biological target: isolated smooth muscle myosin (UniProt P10587); format: biochemical, chamois; conditions: concentration required for semi-maximal inhibition of ATPase
Description: (ii) the concentration required for semi-maximal inhibition.

[3] = biological target: isolated smooth muscle myosin (UniProt P10587); format: biochemical, chamois; conditions: for % inhibition at 5 μM (or 10 μM if racemate) Smooth: 5 μM (10 μM if racemate); for % inhibition at 5 μM (or 10 μM if racemate) Smooth / % inhibition at 50 μM (or 100 μM if racemate) Smooth: ATPase activity; for % inhibition at 50 μM (or 100 μM if racemate) Smooth: 50 μM (100 μM if racemate); for % inhibition. complete Smooth: maximum value of inhibition of ATPase activity
[4] = biological target: recombinant Dictyostelium miozin (Dictyostelium) (Dictyostelium discoideum, UniProt P08799); assay: actomyosin steady state ATPase measurement, Dictyostelium myosin; format: biochemical; conditions: for IC50: concentration required for semi-maximal inhibition of ATPase, read-out: IC50 (μM) Dicty; for % inhibition. complete Dicty: maximum value of inhibition of ATPase activity; for inhibition at 5 µM: read-out: % inhibition at 5 μM (or 10 μM if racemate) Dicty; for inhibition at 50 µM: read-out: % inhibition at 50 μM (or 100 μM if racemate) Dicty
Description: as §1

[5] = test system: isolated rabbit skeletal muscle myosin (skeletal); assay: actomyosin steady state ATPase measurement, skeletal muscle myosin; format: biochemical; conditions: for % inhibition at 5 μM (or 10 μM if racemate) Skeletal: 5 μM (10 μM if racemate); for % inhibition at 5 μM (or 10 μM if racemate) Skeletal / % inhibition at 50 μM (or 100 μM if racemate) Skeletal: ATPase activity; for % inhibition at 50 μM (or 100 μM if racemate) Skeletal: 50 μM (100 μM if racemate); for IC50: concentration required for semi-maximal inhibition of ATPase; for % inhibition. complete Skeletal: maximum value of inhibition of ATPase activity
Description: as §1

[6] = biological target: T1, isolated porcine cardiac ventricular myocardium (cardiac) (Sus scrofa, UniProt P79293); assay: actomyosin steady state ATPase measurement, cardiac myosin; format: biochemical; conditions: for IC50: concentration required for semi-maximal inhibition of ATPase; for % inhibition. complete cardiac: maximum value of inhibition of ATPase activity; for inhibition at 5 µM: read-out: % inhibition at 5 μM (or 10 μM if racemate) cardiac, 5 μM (10 μM if racemate); for inhibition at 5 µM / inhibition at 50 µM: ATPase activity; for inhibition at 50 µM: read-out: % inhibition at 50 μM (or 100 μM if racemate) cardiac, 50 μM (100 μM if racemate)
T1 construct: isolated porcine cardiac ventricular myocardium (cardiac); from tissue; host or cells: porcine cardiac ventricle
T1 sequence (P79293 whole entry): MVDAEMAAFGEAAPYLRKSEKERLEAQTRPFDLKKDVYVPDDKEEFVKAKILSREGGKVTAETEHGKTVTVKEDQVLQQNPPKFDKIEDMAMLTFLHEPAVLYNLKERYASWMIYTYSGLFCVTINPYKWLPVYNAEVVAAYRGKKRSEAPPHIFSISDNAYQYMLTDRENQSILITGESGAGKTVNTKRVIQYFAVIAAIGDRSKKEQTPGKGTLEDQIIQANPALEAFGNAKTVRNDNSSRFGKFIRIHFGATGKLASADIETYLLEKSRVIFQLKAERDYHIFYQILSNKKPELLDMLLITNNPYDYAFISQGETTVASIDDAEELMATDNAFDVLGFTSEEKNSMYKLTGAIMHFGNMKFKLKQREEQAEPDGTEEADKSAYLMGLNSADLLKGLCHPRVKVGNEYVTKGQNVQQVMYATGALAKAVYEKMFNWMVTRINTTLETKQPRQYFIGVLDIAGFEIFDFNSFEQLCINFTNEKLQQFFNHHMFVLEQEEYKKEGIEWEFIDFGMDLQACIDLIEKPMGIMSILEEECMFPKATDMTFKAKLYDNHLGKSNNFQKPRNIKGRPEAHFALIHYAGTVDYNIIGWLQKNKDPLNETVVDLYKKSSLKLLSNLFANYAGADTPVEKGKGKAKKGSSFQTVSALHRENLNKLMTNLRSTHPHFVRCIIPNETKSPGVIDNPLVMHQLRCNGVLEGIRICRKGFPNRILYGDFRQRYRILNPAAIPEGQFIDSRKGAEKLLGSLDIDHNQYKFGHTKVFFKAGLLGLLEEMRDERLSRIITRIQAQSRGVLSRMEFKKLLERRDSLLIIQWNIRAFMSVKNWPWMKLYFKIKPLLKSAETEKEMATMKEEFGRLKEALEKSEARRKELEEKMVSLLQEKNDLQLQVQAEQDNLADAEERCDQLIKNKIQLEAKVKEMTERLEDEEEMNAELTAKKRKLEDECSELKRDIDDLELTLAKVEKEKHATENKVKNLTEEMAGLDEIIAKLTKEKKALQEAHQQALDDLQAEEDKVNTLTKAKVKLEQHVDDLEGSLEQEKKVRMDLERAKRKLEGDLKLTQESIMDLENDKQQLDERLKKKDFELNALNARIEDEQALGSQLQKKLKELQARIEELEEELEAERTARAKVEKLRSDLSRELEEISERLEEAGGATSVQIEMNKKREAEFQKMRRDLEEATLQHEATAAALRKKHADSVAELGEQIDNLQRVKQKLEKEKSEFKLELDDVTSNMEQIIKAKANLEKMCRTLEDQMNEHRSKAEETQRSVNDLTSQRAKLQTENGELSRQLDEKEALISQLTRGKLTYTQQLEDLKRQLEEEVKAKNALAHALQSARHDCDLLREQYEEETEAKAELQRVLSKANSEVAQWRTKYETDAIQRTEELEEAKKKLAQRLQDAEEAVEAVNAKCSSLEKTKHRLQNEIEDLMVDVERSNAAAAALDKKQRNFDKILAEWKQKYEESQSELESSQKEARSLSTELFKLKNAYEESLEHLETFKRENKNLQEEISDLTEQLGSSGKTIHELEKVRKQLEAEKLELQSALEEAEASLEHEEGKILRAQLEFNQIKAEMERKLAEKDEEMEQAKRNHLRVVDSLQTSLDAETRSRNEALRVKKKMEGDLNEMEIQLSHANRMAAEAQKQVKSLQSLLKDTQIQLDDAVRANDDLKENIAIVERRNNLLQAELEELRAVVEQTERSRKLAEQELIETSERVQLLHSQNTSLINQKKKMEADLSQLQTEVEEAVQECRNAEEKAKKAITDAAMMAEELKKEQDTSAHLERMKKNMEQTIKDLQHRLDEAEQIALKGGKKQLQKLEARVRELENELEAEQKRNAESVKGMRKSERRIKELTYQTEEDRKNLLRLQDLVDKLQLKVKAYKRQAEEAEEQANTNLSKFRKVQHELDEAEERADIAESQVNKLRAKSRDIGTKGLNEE
Description: as §1

[7] = biological target: recombinant human non-muscle myosin 2 NM2B (Homo sapiens, UniProt P35580); assay: actomyosin steady state ATPase measurement, NM2B; format: biochemical; conditions: read-out: % inhibition at 50 μM (or 100 μM if racemate) NM2B; 50 μM (100 μM if racemate); ATPase activity
Description: as §1

[8] = biological target: recombinant human non-muscle myosin 2 NM2A (Homo sapiens, UniProt P35579); assay: actomyosin steady state ATPase measurement, NM2A; format: biochemical; conditions: read-out: % inhibition at 50 μM (or 100 μM if racemate) NM2A; 50 μM (100 μM if racemate); ATPase activity
Description: as §1

Row | Structure (SMILES) | IC50 [1] | % inhibition. complete NM2C [1] | inhibition at 5 µM [1] | inhibition at 50 µM [1] | IC50 [2] | % inhibition at 5 μM (or 10 μM if racemate) Smooth [3] | % inhibition at 50 μM (or 100 μM if racemate) Smooth [3] | % inhibition. complete Smooth [3] | IC50 [4] | % inhibition. complete Dicty [4] | inhibition at 5 µM [4] | inhibition at 50 µM [4] | % inhibition at 5 μM (or 10 μM if racemate) Skeletal [5] | % inhibition at 50 μM (or 100 μM if racemate) Skeletal [5] | IC50 [5] | % inhibition. complete Skeletal [5] | IC50 [6] | % inhibition. complete cardiac [6] | inhibition at 5 µM [6] | inhibition at 50 µM [6] | also measured
1 | Cc1cc2c(s1)N=C1N(c3ccc(C#N)cc3)CCC1(O)C2=O (stereo not drawn) [Compound 224, 4-{9-Hydroxy-5-methyl-8-oxo-4-thia-2,12-diazatricyclo[7.3.0.0^3,7]dodeca-1,3(7),5-trien-12-yl}benzonitrile] | 1.2 µM | 93% | 72% | 91% | 1.7 µM | 72% | 96% | 99% | 2.8 µM | 89% | 64% | 86% | 94% | 98% | 0.21 µM | 98% | 1.7 µM | 99% | 72% | 96% | –
2 | Cc1ccc(N2CC[C@@]3(O)C(=O)c4ccsc4N=C23)cc1 [Compound 233, (9S)-9-Hydroxy-12-(4-methylphenyl)-4-thia-2,12-diazatricyclo[7.3.0.0^3,7]dodeca-1,3(7),5-trien-8-one] | 2.1 µM | 72% | 48% | 69% | 8.8 µM | 29% | 70% | 83% | 17 µM | 100% | 21% | 76% | 92% | 98% | 0.32 µM | 98% | 0.82 µM | 88% | 74% | 87% | Inhibition (%) NM2C ([1]; maximum inhibition, compounds in IC50 range 1-5 μM): 72%
3 | O=C1c2ncccc2N=C2N(c3ccccc3)CCC12O (stereo not drawn) [Compound 190, 8a-Hydroxy-6-phenyl-6H,7H,8H,8aH,9H-pyrrolo[2,3-b]1,5-naphthyridin-9-one] | – | – | – | 41% | – | – | 34% | – | – | – | – | 44% | – | 86% | – | – | – | – | – | 43% | inhibition at 50 µM [7]: 24%; inhibition at 50 µM [8]: 15%
4 | O=C1c2ccsc2N=C2N(c3ccc(OC(F)(F)F)cc3)CC[C@@]12O [Compound 212, (9S)-9-hydroxy-12-[4-(trifluoromethoxy)phenyl]-4-thia-2,12-diazatricyclo[7.3.0.0^3,7]dodeca-1,3(7),5-trien-8-one] | 6.4 µM | 61% | 19% | 56% | 10.4 µM | 24% | 61% | 74% | 10.9 µM | 84% | 26% | 69% | 94% | 97% | 0.19 µM | 98% | 5.9 µM | 100% | 43% | 93% | Inhibition (%) Dicty ([4]; maximum inhibition, compounds in IC50 range 1-11 μM): 84%
